Experimental data from US20050164951A1, “Inhibitors for the soluble epoxide hydrolase” (The Regents of the University of California, priority 2003, published 2005).
“Also recorded” adds a separate entry of the source. Where two headings read alike, the source gives them in different places.

Assays:
[1] = Metabolic stability in rat hepatic microsomes with NADPH generating system; assay type: in vitro ADME
Experimental: FIG. 6 is a graph illustrating the metabolic stabilities of 1-adamantyl-3-dodecyl urea (686) and 1-cyclohexyl-3-dodecyl urea (297) in rat hepatic microsomes. Microsomes were incubated with 1 μM 686 or 297 in the presence of an NADPH generating system. Data are expressed as mean ±SD of triplicate experiments.
To evaluate the metabolic stability of these inhibitors, the microsomal and NADPH dependent metabolism of a number of potent sEH inhibitors was evaluated. […] The first step in the metabolic transformation of the n-alkyl to n-alkanoic acid derivatives is an NAPDH dependent process carried out by cytochrome P450 dependent omega hydroxylation in rodent and human hepatic tissue preparations (see FIG. 8). When in vivo metabolism was evaluated, evidence for the beta-oxidation of the alkanoic acid derivatives was also found (see FIG. 9).

human sEH = biological target: T1, human sEH (Homo sapiens, UniProt P34913); experiment: Inhibition of recombinant human sEH, IC50 assay with 4-nitrophenyl-trans-2,3-epoxy-3-phenylpropyl carbonate as substrate; assay type: biochemical; conditions: Table 2; […] enzyme, 5 min preincubation, pH 7.4, 30° C.; means ± SD; read-out: IC50 (μM) Human sEH
T1 construct: made in house; host or cells: baculovirus expression system
T1 sequence (P34913 1-555): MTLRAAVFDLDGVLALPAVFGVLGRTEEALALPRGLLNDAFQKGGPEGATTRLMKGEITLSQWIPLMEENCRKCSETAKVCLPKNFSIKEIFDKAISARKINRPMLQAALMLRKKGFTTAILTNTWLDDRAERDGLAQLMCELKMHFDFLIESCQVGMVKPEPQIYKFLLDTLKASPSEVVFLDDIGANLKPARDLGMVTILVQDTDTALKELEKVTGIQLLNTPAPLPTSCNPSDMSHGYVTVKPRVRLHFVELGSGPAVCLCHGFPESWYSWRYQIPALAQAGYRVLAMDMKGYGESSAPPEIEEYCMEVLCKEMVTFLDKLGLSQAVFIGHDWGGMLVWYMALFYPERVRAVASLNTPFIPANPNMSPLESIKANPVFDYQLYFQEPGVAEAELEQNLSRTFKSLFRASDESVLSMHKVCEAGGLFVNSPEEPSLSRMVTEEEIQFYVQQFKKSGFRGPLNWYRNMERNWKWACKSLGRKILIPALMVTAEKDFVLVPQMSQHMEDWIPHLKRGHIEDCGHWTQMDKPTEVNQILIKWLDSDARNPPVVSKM
Experimental: (§1) Assays were performed in triplicate. […] The curve was generated from at least three separate runs, each in triplicate, to obtain the standard deviation (SD) given in Table 1 thru Table 4.

[2] = Cream on index finger of a patient with Raynaud syndrome before cold exposure; assay type: in vivo, human; conditions: cream applied to a finger before cold exposure
Experimental: The experimental design involved preparing the Vanicream solutions with ethanol with or without active compound, then covering the syringe barrels with aluminum foil. The compounds were applied in a bind fashion approximately 20 minutes before exposure and then the hands were exposed to cold for approximately 30 minutes and the results recorded. The following day the results were decoded. Treatments (left or right index finger) were random. […] The test compounds were dissolved in ethanol at a concentration of 10 mg/mL and this in turn mixed with commercial Vanicream at a 10:1 concentration to give 1 mg/mL final concentration of active ingredient in the Vanicream/ethanol mixture. Approximately 100 μL of cream (±sEH inhibitor) were applied to a single finger. The first two columns indicate that over a range of exposure conditions the results from the left and right […] were similar. […] Since the experiment was run blind, the left and right index fingers were treated in a random fashion. For convenience the treatments are shown on the right in each case. […]

Water solubility = assay type: physicochemical; conditions: for solubility relative to the corresponding cyclohexyl derivative: 772 vs. 789, 791 vs. 790, 297 vs. 686
mouse sEH = biological target: T2, mouse sEH (Mus musculus, UniProt P34914); experiment: Inhibition of recombinant mouse sEH, IC50 assay with 4-nitrophenyl-trans-2,3-epoxy-3-phenylpropyl carbonate as substrate; assay type: biochemical; conditions: Table 2, 5 min preincubation, pH 7.4, 30° C., means ± SD, read-out: IC50 (μM) Mouse sEH
T2 construct: made in house; host or cells: baculovirus expression system
T2 sequence (P34914 1-554): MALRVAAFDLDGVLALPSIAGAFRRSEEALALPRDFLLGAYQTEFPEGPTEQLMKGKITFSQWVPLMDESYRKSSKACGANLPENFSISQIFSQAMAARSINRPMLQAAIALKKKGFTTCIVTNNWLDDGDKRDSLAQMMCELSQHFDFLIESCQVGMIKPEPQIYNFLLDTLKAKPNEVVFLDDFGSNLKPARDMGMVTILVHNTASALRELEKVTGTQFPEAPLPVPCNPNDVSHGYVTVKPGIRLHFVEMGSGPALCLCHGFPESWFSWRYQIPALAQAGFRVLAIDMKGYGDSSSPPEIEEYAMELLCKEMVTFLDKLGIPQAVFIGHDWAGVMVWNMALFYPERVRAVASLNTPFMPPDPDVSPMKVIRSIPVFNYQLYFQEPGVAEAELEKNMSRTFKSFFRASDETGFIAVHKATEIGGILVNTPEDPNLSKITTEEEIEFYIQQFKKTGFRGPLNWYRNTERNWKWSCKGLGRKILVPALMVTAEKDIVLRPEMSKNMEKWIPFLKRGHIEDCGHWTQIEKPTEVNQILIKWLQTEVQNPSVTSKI
Experimental: as §1

[3] = Pharmacokinetics after oral gavage in mice; assay type: in vivo, mouse; conditions: 5 mg/kg orally
Experimental: Animals. Male Swiss Webster mice, 6 weeks-old, were obtained from Charles River (Calif., USA). […] The body weight of animals used in all the experiments ranged from 28 g to 38 g. […] Administration and measurement. […] Then the samples were centrifuged at 6000 rpm for 5 min, and the ethyl acetate layer was dried under nitrogen. The residue was reconstituted in 25 μL of methanol, and aliquots (5 μL) were injected onto the LC-MS/MS system. Analysis. Pharmacokinetics analysis was performed using SigmaPlot software system (SPSS science, Chicago, Ill.). […] AUC=a/b Where: • C=the total blood concentration at time t • a=the extrapolated zero intercept b=the apparent first-order elimination rate constant

[4] = test system: linoleate and arachidonate derived epoxides and diols; experiment: Urinary oxylipins in angiotensin II infused rats; assay type: in vivo, rat; conditions: ANGII infused Sprague-Dawley rats, subcutaneous injection, urine 24 hr post exposure, LC/MS/MS
Source text: In this example, hypertension was induced in one group of Sprague-Dawley rats by the infusion of angiotensin II (ANGII).

[5] = Pharmacokinetics of 687 and 800 in a human subject; assay type: in vivo; conditions: FIG. 11; single oral administration of either 687 or 800 to a human subject
Experimental: (§2) Serial bled blood samples (3-50 μL) were collected from finger tips into 50 μL heparinized capillary tube at various time points (0.5, 1, 2, 4, 6, 12 and 24 hr) after administration. These samples were used to measure parent compounds and their metabolites using LC-MS/MS as described above for experiments with mice. Blood samples were added 400 μL of distilled water and 25 μL of internal standard (500 ng/mL CTU), and vortexed. The blood samples were then extracted with 500 μL of ethyl acetate twice and the ethyl acetate layer was dried under nitrogen. The residue was reconstituted in 25 μL of methanol, and aliquots (10 μL) were injected onto the LC-MS/MS system as described above. Biological end points came from clinical chemistry samples run at The University of California Davis Clinical Laboratory and a series of 6 inflammatory markers including C reactive protein were run blind at the University of California Davis Department of Nephrology.

mouse and human sEH = experiment: sEH IC50 assay, comparisons of the text made for both enzymes or without naming the enzyme; assay type: biochemical
Experimental: as §1

[6] = Oral AUDA butyl ester (800) in a patient with end stage renal disease: clinical chemistry, C reactive protein, blood pressure; assay type: in vivo, human
Experimental: as §2, with “These” for “Serial bled blood samples (3-50 μL) were collected from finger tips into 50 μL heparinized capillary tube at various time points (0.5, 1, 2, 4, 6, 12 and 24 hr) after administration. These”

[7] = Blood concentration after oral administration of 950 and AUDA-nBE, human pharmacokinetic profile; assay type: in vivo
Experimental: FIG. 16 provides a sample preparation procedure for a pharmacokinetic study. A 5 μl whole blood sample was drawn into a capillary at a specific time point, each sample was extracted and anaylzed by LC/MS-MS. […] AUDA is the active metabolite of AUDA-nBE. […] 0.05 mg/kg. (B). 0.1 mg/kg. […] The compounds were administered at the same time in the same formulation. […] 21 mg (0.3 mg/kg) 950 and AUDA-nBE were orally administrated with starch. (B). 7 mg (0.1 mg/kg) formulated 950 and AUDA-NBE were taken with (HPMC, starch and lactose). (C). […] 950 with HPMC and Starch. (B). 950 in lactose and HPMC. […] HPMC forms a gel which slowly erodes; lactose enhances erosion at it moves through the gut and starch retards it. These formulations are combined, ball milled, and then placed in ‘0’ capsule and not compressed.

[8] = assay type: in vitro ADME, rat and human
Source text: Both rat and human microsomes were used for the 950 metabolism study.

[9] = Effect of compound 950 and of Norvasc on blood pressure; assay type: in vivo; conditions: 950 0.05 mg/Kg per day

For `O=C(NC1CCCCC1)NC12CC3CC(CC(C3)C1)C2` [Compound 192, 1-adamantyl-3-cyclohexylurea], which “metabolic stability in microsomal preparations” value ([1]; rat, microsomes) is on record?
Its value is “improved stability”.

Which IC50 (human sEH) does the source give for `CCCCCCCCCCCCNC(=O)NC1CCCCC1` [Compound 297, 1-cyclohexyl-3-dodecyl urea, reference compound] here?
The IC50 was 0.14 ± 0.01 µM.

What about the “effect on Raynaud's symptoms” value [2] of the same molecule?
The value was “reduces severity of Raynaud's symptoms”.

For `CCCCCCCCCCCCNC(=O)NC12CC3CC(CC(C3)C1)C2` [Compound 686, 1-adamantyl-3-dodecylurea, reference compound], which “solubility relative to the corresponding cyclohexyl derivative” value (Water solubility) is on record?
The value was “approximately 2 x”.

And the IC50 (human sEH)?
The IC50 was 0.1 ± 0.01 µM.

What about the IC50 (mouse sEH; 0.12 μM enzyme) of the same molecule?
The IC50 was 0.05 ± 0.01 µM.

And the “time to reach the maximum concentration” value [3]?
The value was 2 h.

For `O=C(O)CCCCCCCCCCCNC(=O)NC12CC3CC(CC(C3)C1)C2` [Compound 687, 1-(1-adamantyl)-3-(12-dodecanoic acid)urea], which “metabolic stability in microsomal preparations” value ([1]; 1 μM, NADPH generating system, FIGS. 6 and 7) is on record?
The value was “stable”.

And the “urinary diol concentrations (DHOMEs, DHETs)” value [4]?
Its value is “decrease in diol concentrations”.

And the “urinary epoxides (EpOMEs, EETs)” value [4]?
The value was “increase in urinary epoxides”.

What about the “maximum circulating concentration of 687, humans compared with mice” value [5] of the same molecule?
The value was “much higher in humans”.

And the “time to reach the maximum concentration” value [3]?
Its value is 0.5 h.

With `CCCCCOC(=O)CCCNC(=O)NC12CC3CC(CC(C3)C1)C2` [Compound 789] as the molecule, how does the “solubility relative to the corresponding cyclohexyl derivative” value (Water solubility) read?
Its value is “approximately 2 x”.

What about the “water solubility” value (Water solubility; compared with non-functionalized lipophilic inhibitors (791, 790)) of the same molecule?
The value was “increases their water solubility”.

What about the IC50 (human sEH) of the same molecule?
The IC50 was 0.17 ± 0.01 µM.

And the “increase of inhibitor potency over the 3-chlorophenyl analog (767)” value (mouse and human sEH)?
The value was 10 fold.

And the IC50 (mouse sEH; […] enzyme)?
Its IC50 is 0.05 ± 0.01 µM.

For `CCCCOC(=O)CCCCCCCCCCCNC(=O)NC12CC3CC(CC(C3)C1)C2` [Compound 800, 1-(1-Adamantyl)-3-(11-butoxycarbonylundecyl)urea], which “serum profile of regulatory lipids” value ([6]; patient approaching ESRD, brief oral treatment with low doses) is on record?
The value was “altered the serum profile of regulatory lipids in a positive manner”.

What about the Creatinine ([6]; same trial, ESRD without drug 5.0, normal 0.5-1.3) of the same molecule?
Its Creatinine is 4.9 mg/dL.

What about the “Cmax” value ([7]; FIG. 23, 7mg each in tristerate (0.1 mg/kg) orally, human) of the same molecule?
Its value is “rather high Cmax”.

And the “performance of simple dry formulations” value ([7]; FIG. 26, starch, HPMC/starch/lactose or lactose, 0.1-0.3 mg/kg orally)?
Its value is “very poorly”.

And the “absorption depending on formulation” value ([7]; FIGS. 23 and 26, oral, human, listed as AUDA-BE)?
Its value is “only absorbed efficiently in a lipid formulation; also recorded: bioavailable in lipid formulations”.

With `CCOCCOCCOCCCCCNC(=O)NC12CC3CC(CC(C3)C1)C2` [Compound 950] as the molecule, how does the “major metabolite in vitro” value [8] read?
The value was “hydroxy metabolite was the major metabolite”.

What about the “T1/2 compared with AUDA-BE” value ([7]; human, in vivo, po, 0.1 mg/kg) of the same molecule?
Its value is “longer T1/2”.

And the “pharmacokinetics” value ([7]; in vivo)?
The value was “improved pharmacokinetics”.

For `CCOC(=O)C1=C(COCCN)NC(C)=C(C(=O)OC)C1c1ccccc1Cl` (stereo not shown) [Norvasc], which “Systolic Avg.” value ([9]; Norvasc 5.0 mg per day (separate experiment), W/O 950 151, W/O Norvasc 145) is on record?
The value was 143.

What about the “Pulse Avg.” value ([9]; Norvasc 5.0 mg per day, W/O 950 97, W/O Norvasc 79) of the same molecule?
The value was 89.

And the “Diastolic Avg.” value ([9]; Norvasc 5.0 mg per day, W/O 950 103, W/O Norvasc 100)?
The value was 95.
